Source: patent US7381744B1, “Method of treating osteoporosis comprising vacuolar-type (H+)-ATPase-inhibiting compounds” (The United States of America as represented by the …, priority 1999, dated 2008)

Legend:
Assay in all cases: NCI 60 cell-line screen
Type in all cases: cell-based
[1] = system: T-47D; conditions: Homo sapiens, T47D, Breast, averaged, quadruplicate testing, read-out: negative log10 GI50 (converted)
Text: (§1) It is the concentration where 100×(T−To)/To=−50=PG. […] Res., 34, 91-109 (1995).

[2] = system: NCI-H322M; conditions: Homo sapiens, Lung, averaged, quadruplicate testing, read-out: negative log10 GI50 (converted)
Text: as §1

[3] = system: HS-578T; conditions: Homo sapiens, Breast, averaged, quadruplicate testing, read-out: negative log10 GI50 (converted)
Text: as §1

[4] = system: SK-OV-3; conditions: Homo sapiens, Ovary, averaged, quadruplicate testing, read-out: negative log10 GI50 (converted)
Text: as §1

[5] = system: HOP-62; conditions: Homo sapiens, Lung, averaged, quadruplicate testing, read-out: negative log10 GI50 (converted)
Text: as §1

[6] = system: ACHN; conditions: Homo sapiens, Kidney, averaged, quadruplicate testing, read-out: negative log10 GI50 (converted)
Text: as §1

[7] = system: OVCAR-8; conditions: Homo sapiens, Ovary, averaged, quadruplicate testing, read-out: negative log10 GI50 (converted)
Text: as §1

[8] = system: NCI-H23; conditions: Homo sapiens, Lung, averaged, quadruplicate testing, read-out: negative log10 GI50 (converted)
Text: as §1

[9] = system: SK-MEL-2; conditions: Homo sapiens, Melanoma, averaged, quadruplicate testing, read-out: negative log10 GI50 (converted)
Text: as §1

[10] = system: OVCAR-5; conditions: Homo sapiens, Ovary, averaged, quadruplicate testing, read-out: negative log10 GI50 (converted)
Text: as §1

[11] = system: NCI-H522; conditions: Homo sapiens, Lung, averaged, quadruplicate testing, read-out: negative log10 GI50 (converted)
Text: as §1

[12] = system: MDA-MB-435; conditions: Homo sapiens, Breast, averaged, quadruplicate testing, read-out: negative log10 GI50 (converted)
Text: as §1

[13] = system: NCI-H226; conditions: Homo sapiens, Lung, averaged, quadruplicate testing, read-out: negative log10 GI50 (converted)
Text: as §1

[14] = system: CCRF-CEM; conditions: Homo sapiens, Leukemia, averaged, quadruplicate testing, read-out: negative log10 GI50 (converted)
Text: as §1

[15] = system: NCI-H460; conditions: Homo sapiens, Lung, averaged, quadruplicate testing, read-out: negative log10 GI50 (converted)
Text: as §1

[16] = system: HCT-15; conditions: Homo sapiens, Colon, averaged, quadruplicate testing, read-out: negative log10 GI50 (converted)
Text: as §1

[17] = system: SF-268; conditions: Homo sapiens, Brain, averaged, quadruplicate testing, read-out: negative log10 GI50 (converted)
Text: as §1

[18] = system: SW-620; conditions: Homo sapiens, Colon, averaged, quadruplicate testing, read-out: negative log10 GI50 (converted)
Text: as §1

[19] = system: MDA-MB-231/ATCC; conditions: Homo sapiens, Breast, averaged, quadruplicate testing, read-out: negative log10 GI50 (converted)
Text: as §1

[20] = system: MALME-3M; conditions: Homo sapiens, Melanoma, averaged, quadruplicate testing, read-out: negative log10 GI50 (converted)
Text: as §1

[21] = system: SK-MEL-5; conditions: Homo sapiens, Melanoma, averaged, quadruplicate testing, read-out: negative log10 GI50 (converted)
Text: as §1

[22] = system: RPMI-8226; conditions: Homo sapiens, Leukemia, averaged, quadruplicate testing, read-out: negative log10 GI50 (converted)
Text: as §1

[23] = system: COLO 205; conditions: Homo sapiens, Colon, averaged, quadruplicate testing, read-out: negative log10 GI50 (converted)
Text: as §1

[24] = system: MDA-N; conditions: Homo sapiens, Breast, averaged, quadruplicate testing, read-out: negative log10 GI50 (converted)
Text: as §1

[25] = system: PC-3; conditions: Homo sapiens, Prostate, averaged, quadruplicate testing, read-out: negative log10 GI50 (converted)
Text: as §1

[26] = system: SNB-19; conditions: Homo sapiens, Brain, averaged, quadruplicate testing, read-out: negative log10 GI50 (converted)
Text: as §1

[27] = system: IGROV1; conditions: Homo sapiens, IGROV-1, Ovary, averaged, quadruplicate testing, read-out: negative log10 GI50 (converted)
Text: as §1

[28] = system: OVCAR-4; conditions: Homo sapiens, Ovary, averaged, quadruplicate testing, read-out: negative log10 GI50 (converted)
Text: as §1

[29] = system: RXF-393; conditions: Homo sapiens, Kidney, averaged, quadruplicate testing, read-out: negative log10 GI50 (converted)
Text: as §1

[30] = system: BT-549; conditions: Homo sapiens, Breast, averaged, quadruplicate testing, read-out: negative log10 GI50 (converted)
Text: as §1

[31] = system: MCF-7; conditions: Homo sapiens, MCF7, Breast, averaged, quadruplicate testing, read-out: negative log10 GI50 (converted)
Text: as §1

[32] = system: UACC-62; conditions: Homo sapiens, Melanoma, averaged, quadruplicate testing, read-out: negative log10 GI50 (converted)
Text: as §1

CC/C=C\C=C/C(=O)N/C=C/CC1CC(O)C(C)C/C=C/Cc2cccc(O)c2C(=O)O1 (centres unmarked) [salicylihalamide A]
GI50 [1]: 4.57 nM | GI50 [2]: 191 nM | GI50 [3]: 1410 nM | GI50 [4]: 2880 nM | GI50 [5]: 4.17 nM | GI50 [6]: 9.77 nM | GI50 [7]: 3.72 nM | GI50 [8]: 282 nM | GI50 [9]: 33.9 nM | GI50 [10]: 7.76 nM | GI50 [11]: 55 nM | GI50 [12]: 15.1 nM | GI50 [13]: 1.58 nM | GI50 [14]: 12.9 nM | GI50 [15]: 0.977 nM | GI50 [16]: 3.63 nM | GI50 [17]: 28.2 nM | GI50 [18]: 28.8 nM | GI50 [19]: 120 nM | GI50 [20]: 24 nM | GI50 [21]: 1 nM | GI50 [22]: 12.9 nM | GI50 [23]: 8.51 nM | GI50 [24]: 10 nM | GI50 [25]: 30.9 nM | GI50 [26]: 339 nM | GI50 [27]: 12.9 nM | GI50 [28]: 5010 nM | GI50 [29]: 0.851 nM | GI50 [30]: 0.501 nM | GI50 [31]: 75.9 nM | GI50 [32]: 4.17 nM
